Experiments:
[1] = side effects in patients; cited from earlier work
[2] = cited from earlier work
Irradiated mice (6.5 Gy) = test: In vivo treatment of irradiated mice with FTGN; details: one or two intravenous 50 μg injections (2 or 2 and 24 hours post-irradiation), one month later
Protocol: Irradiated mice (6.5 Gy) were treated in vivo with the FTGN tetrapeptide. Thirty days after treatment BMC were counted.
Irradiated mice (6.5 Gy) were treated in vivo with the FTGN tetrapeptide. Thirty days after treatment CFU from BM were counted.
Irradiated mice (6.5 Gy) were treated with one or two intravenous 50 μg FTGN tetrapeptide injections (2 or 2 and 24 hours post-irradiation). BM nucleated cells count (FIG. 17) and CFUc (FIG. 18) were examined one month later.

[3] = tested on: Mice irradiated with a high lethal dose (10 Gy); test: Survival of lethally irradiated mice (10 Gy) transplanted with BM cells treated with FTGN; assay type: in vivo; details: 6×10^4 cells incubated one hour with 10 μg/ml, 30 days post-transplant
Protocol: Lethally irradiated mice (10 Gy.) were transplanted with 60.000 donor BM cells previously incubated for 1 hour in the presence ([…]) or absence of FTGN tetrapeptide. Mice survival was pursue during 30 days and compared to control irradiated mice untreated or mice that were transplanted with untreated donor BMC.
Mice irradiated with a high lethal dose (10 Gy) were injected with 6×10^4 cells previously incubated for one hour with 10 μg/ml FTGN tetrapeptide. Mice survival was surveyed for a 30 days period post-transplant.

[4] = tested on: Whole body irradiated (7.0 Gy) C57Bl/6J mice; test: Optimal FTGN ex vivo treatment concentration, normal or irradiated donor BMC transplanted into irradiated mice; assay type: in vivo
Protocol: (§1) Total body irradiated mice (7.0 Gy) were injected with 6×10^4 BMC previously treated with FTGN tetrapeptide at different concentrations (0.1, 0.5, 1.0, 10.0 and 50.0 μg/ml). Spleen colonies were measured 9 days after irradiation and compared to mice transplanted with BMC incubated only with PBS.
as §1, with “Bone marrow cells from femur” for “Spleen colonies”, “counted 4,” for “measured”, “9 and 16” for “9”
Donor BM cells incubated ex vivo in RPMI medium in the presence (10 μg/ml) or absence of FTGN tetrapeptide for 2 hours were transplanted into irradiated recipient mice (7.0 Gy.). Twenty days after transplant BMC/bone were counted.
In order to elucidate the optimal FTGN tetrapeptide treatment concentration needed to achieve maximum recovery of radiation damaged BMC, two sets of donor cells were examined. Donor BMC (4-6×10^6 cells/ml) from normal untreated C57 Bl/6J mice and from in vivo irradiated mice (4.5 Gy) collected 24 hours post-irradiation, were incubated for two hours with different concentrations of FTGN tetrapeptide (0.05; 0.1; 0.5; 1.0; 10 and 50 μg/ml). Whole body irradiated (7.0 Gy) C57Bl/6J mice were intravenously injected with 6×10^4 of each different donor treated cells or with control cells. The recovery of the hematopoietic system in the transplanted mice was evaluated from the 4th to the 30th day post-irradiation.

[5] = tested on: Whole body irradiated C57Bl/6J mice; test: Ex vivo BMC treatment with FTGN, transplantation into whole body irradiated mice; assay type: in vivo
Protocol: Mice that were whole-body irradiated with a dose of 7.5 Gy (which is normally considered a lethal dose), were transplanted by intravenous injection with donor's bone marrow cells preincubated ex vivo with different concentrations of the synthetic tetrapeptide.
Bone marrow cells (BMC) were transplanted into mice by intravenous injection, usually 60,000 cells in 0.3 ml of PBS buffer after 2 hours incubation at 37° C. with the examined agent.
Mice spleen colonies (CFUs) were counted using the method of Till and McCulloch [Till J. E. and McCulloch E. A. Radiation Res. (1961) 14: 213] on 9th, 11th and 14th days after irradiation.
CFUc were assayed in semi-solid medium using 2×10^4 cells/plate.
Donor normal BMC (4-6×10^6 cells/nil) from C57 Bl/6J mice were incubated with different concentrations of FTGN tetrapeptide (0.05; 0.1; 0.5; 1.0; 10 and 50 μg/ml) for two hours. Whole body irradiated (7.0 Gy) C57Bl/6J mice were intravenously injected with 6×10^4 treated or control cells. The recovery of the hematopoietic system in the transplanted mice was evaluated from the 4th to the 30th day post-irradiation.

[6] = FTGN tetrapeptide stability (HPLC); assay type: physicochemical
Protocol: FIG. 6a: HPLC chromatogram of FTGN tetrapeptide reconstituted in water after storage at −10° C. for one year.
FIG. 6c: HPLC chromatogram of FTGN tetrapeptide reconstituted in serum and incubated at 37° C. during 4 hours.
Dry freeze long term storage of the FTGN oligopeptide preserved its structural (FIG. 6a) and biological activities. The dry frozen tetrapeptide conserved its physical characteristics after reconstitution in purified water or serum (FIG. 6c) and was stable after four hours of incubation at 37° C.

[7] = tested on: Whole body irradiated C57Bl/6J mice; test: Ex vivo BMC treatment with FTGN, transplantation into whole body irradiated mice; assay type: in vivo; details: 7.5 Gy, treated vs untreated mice (summary)
Bone marrow cells = test: In vitro incubation of BM cells with FTGN, cloning in methylcellulose medium (myeloid colonies); assay type: cell-based, mice; details: 10 μg/ml, 2 hours; for number of colonies: vs no tetrapeptide
Protocol: FIG. 7a-c: FTGN tetrapeptide biological activity tested in vitro. BM cells were incubated in vitro in RPMI medium in the presence (10 μg/ml) or absence of FTGN tetrapeptide for 2 hours. Cells were washed and cloned in methylcellulose-containing medium.
Bone marrow cells from normal (non irradiated) mice (4-6×10^6 cells/ml) were incubated for 2 hours with 10 μg/ml tetrapeptide; the cells were washed and cloned in cytokine-supplemented methylcellulose semi-solid medium.
Myeloid colonies formed after two weeks were counted.

[8] = 7.5 Gy, treated vs untreated mice (summary)
[9] = 9th day, vs mice transplanted with non-treated cells

With NCCCNCCSP(=O)(O)O [amifostine] as the compound, how does the “patients with nausea and vomiting” value [1] read?
The value was “approximately 53%”.

What about the “stability at room temperature once reconstituted” value [2] of the same compound?
The value was “quite limited”.

What does the source list for FTGN (listed as Testudo horsfieldi)?
BM repopulation (BM nucleated cells count and CFUc) (Irradiated mice (6.5 Gy)): increased the BM repopulation; survival [3]: 100%; ex vivo treatment dose giving the greatest number of nucleated cell in BM ([4]; 4, 9 and 16 days after irradiation, 0.05-50 μg/ml tested): 1 to 10 µg/mL; ex vivo treatment dose giving the highest spleen colony forming units (CFUs) count ([4]; 9th day, 0.05-50 μg/ml tested): 1 to 10 µg/mL; BM repopulation activity after transplant ([4]; donor cells normal or from irradiated (4.5 Gy) mouse, 10 μg/ml, 2 hours): accelerated; spleen weight ([5]; 4th day after transplantation, vs control): No difference; number of bone marrow cells (BMC) [5, 8]: increased; number of white blood cells (WBC) [5, 8]: increased; spleen growth [5, 8]: enhanced spleen growth; spleen colonies number [5, 9]: augmented; spleen weight [5, 9]: augmented; peripheral blood white cells counts (WBC) ([5]; 16th day): improved; total number of nucleated bone marrow cells per femur ([5]; 16th day): doubled; spleen weight ([5]; 16th day, relative to control group): lower; colony-forming cells (CFUbm) in the bone marrow ([5]; semi-solid medium, 9th and 16th day): improvement when low concentrations of the oligopeptide were used; structural and biological activities after dry freeze long term storage ([6]; dry freeze storage, −10° C. for one year, reconstituted in water): preserved; stability after reconstitution in purified water or serum ([6]; four hours of incubation at 37° C.): stable; number of spleen colonies [7]: substantially enhanced; myeloid colony number (Bone marrow cells; BM cells from normal (non irradiated) mice, colonies after two weeks): increased colony number; number of colonies (Bone marrow cells; ex vivo irradiated cells (4.5 Gy)): larger number of colonies; number of colonies (Bone marrow cells; in vivo irradiated cells (4.5 Gy)): larger number of colonies
